Reference: US8435975B2, “Steroidal esters of 17-oximino-5-androsten-3beta-ol” (Council of Scientific & Industrial Research, priority 2007, dated 2013)
Several values for one entry are separate records, joined by “and”; a condition that tells them apart may be missing. Identical values can stand only once.

What was measured:
[1] = test system: human prostate cancer cell line (DU-145); assay: Growth inhibitory activity assay (MTT assay), in vitro antiproliferative activity; format: cell-based; settings: DU-145 cells; for % growth inhibition (mean ± SEM) / inhibition at 5 µg/mL: 5.0 μg/ml; for % growth inhibition (mean ± SEM) / inhibition at 0.01 µg/mL / inhibition at 0.5 µg/mL / inhibition at 1 µg/mL / inhibition at 2 µg/mL / inhibition at 5 µg/mL: 48 hr; for inhibition at 0.01 µg/mL / inhibition at 0.5 µg/mL / inhibition at 1 µg/mL / inhibition at 2 µg/mL / inhibition at 5 µg/mL: Homo sapiens, DU-145, 48 h, read-out: % growth inhibition (mean ± SEM); for inhibition at 0.01 µg/mL: 0.01 μg/ml; for inhibition at 0.5 µg/mL: 0.5 μg/ml; for inhibition at 1 µg/mL: 1.0 μg/ml; for inhibition at 2 µg/mL: 2.0 μg/ml
Procedure: 1) In Vitro Antiproliferative Activity Against Human Prostate Cancer Cell Line (DU-145)
Compounds were screened for antiproliferative activity on human prostate cell line DU-145 at National Centre of Human Genome Studies and Research. Panjab University, Chandigarh. All the compounds (10 to 16), Finasteride and starting material (9) were tested at five different concentrations: 0.01, 0.5, 1.0, 2.0, and 5.0 μg/ml. Finasteride was the positive control in this growth inhibitory assay.
Growth Inhibitory Activity Assay (MTT Assay)
We investigated the effect of newly synthesized compounds on cell growth inhibition using MTT assay. This assay quantifies the viable cells by observing the reduction of tetrazolium salt, MTT to formazan crystals by the live cells. Based on the absorbance of the cell sample after the test is carried out, cell viable can be measured [Loveland, B. E.; Jones, T. G.; Mackay. I. R.; Vaillant, F.; Wang, Z. X.; Hertzog, P. J. Biochem. International 1992, 27, 501 and Wright, S. A.; Thomas, L. N.; Douglas, R. C.; Lazier, C. B.; Rittmaster, R. S. J. Clin. Invest. 1996, 98, 2558]. Cells were cultured at a density of 5×10^3 cells/well in 96 well plates at 37° C. in 5.0% CO2 atmosphere and were allowed to attach for 24 hr. The cells were treated in triplicate with graded concentration of sample and reference drug Finasteride at 37° C. for 48 hr. A 20 μl aliquot of MTT solution was added directly to all the appropriate wells. Following 4 hr of incubation at […], the media was removed and formazan crystals, which results from the reduction of MTT by active cell were dissolved in 100 μl DMSO and vigorously mixed to dissolve the reacted dye. The absorbance of each well was read on Elisa plate reader (Merck) at 570 nm. The spectrometer was calibrated to zero absorbance using culture medium without cells. The relative cell viability (%) related to control well containing cell culture medium without drug was calculated by [A]test/[A]control×100. % Growth Inhibition=[OD]control−[OD]test/[OD]control×100 Results: […]

[2] = test system: 5α-reductase; assay: In vivo effect on serum testosterone level (5α-reductase inhibitory activity), ELISA; design: species or system Sprague Dawley rats; settings: for Serum levels of Testosterone, T: Sprague Dawley male rats, intraperitoneal, Finasteride 40 mg/kg and equimolar dose of compounds, 6 hr after treatment
Procedure: Animals (Sprague Dawley male rats weighing 150-200 g) were divided into 3 groups; vehicle (control), Finasteride (standard), treated (test sample) and each group consist of 5 animals. Sprague Dawley rats were treated intraperitoneally with Finasteride 40 mg/kg and equimolar dose of compounds. After 6 hr of treatment, blood was withdrawn by cardiac puncture under diethyl ether anesthesia and serum was separated from cells by centrifugation. Plasma testosterone values were obtained by ELISA plate reader at […] and are given in ng/ml.
The aliquots of 50 μl of each of standards, control and unknown (serum samples) were added to Testosterone Antibody coated wells. 100 μl of HRP-testosterone conjugate was added to all the wells and the plates were shaken gently on a shaker for proper mixing of the reagents. Following 4 hr of incubation at 37° C., the incubation mixture was removed. The wells were washed with phosphate buffer for 5-6 times (200 μl each time), followed by addition of 100 μl of TMB/H2O2 substrate in each of the wells. The plates were further incubated at 37° C. for 20 minutes. At the end of incubation reaction was stopped by using 100 μl of 0.5 M H2SO4 as stopping reagent. The absorbance of each well was read on Elisa plate reader at 450 nm [Rassaie, M. J.; Kumari, G. L.; Pandey, P. K.; Gupta, N.; Kochupillai, N.; Grover, P. K. Steroids 1992, 57, 288 and Hosoda, H.; Yoshida, H.; Sakai, Y.; Miyairi, S.; Nambara, T. Chem. Pharm. Bull. 1980, 28, 3035]
Intact male rats (Sprague Dawley, 200-250 g) were used in the designed study in which various compounds were compared for in vivo 5α-reductase inhibitory potency, as judged by the their ability to attenuate the conversion of testosterone into dihydrotestosterone (DHT). […] The procedure measure T equally well, and method met all the requirement of precision, accuracy, sensitivity and selectivity.

[3] = In vitro cytotoxicity using mouse macrophages (acute toxicity), MTT assay; format: cell-based; settings: both sexes, Balb C; mouse macrophages, from linear equation of MTT data; read-out: LC50 (concentration lethal to 50% population of cells)
Procedure: (§1) All steroids were dissolved in ethanol and diluted to appropriate concentration: 0.01, 0.5, 1.0, 2.0, 5.0 μg/ml from the two stock solution of 1 mg/ml and […]. Stocks were maintained at room temperature.
(§2) […] Approximately 1 ml of Phosphate buffer saline preincubated at 37° C. was injected into cavity. The abdomen was lavaged for 10 min and fluid along with macrophages were taken out using a syringe into polypropylene tube. The phosphate solution was spun at 800 rpm for 5-10 min and cells were resuspended in 1 ml RPMI media. Cell number was counted using haemocytometer.
(§3) Cells (mouse macrophages) were plated at a density of 5×10^3 cells/well in 96 plate at 37° C. in 5% CO2. Cells were exposed in graded concentration of compounds at designated various concentration. Each concentration was tested in triplicate wells. After 48 hr fresh MTT 20 μl (1 mg/ml) was added directly to all the wells and culture was incubated for 4 hr at 37° C. During this incubation, MTT was converted into a water insoluble formazan complex by metabolic activity of viable cells. Formazan crystal were taken and dissolved in 100 μl of DMSO, which give light pink colour. The absorbance of each well was read on Elisa plate reader (Merck) at 570 nm. The spectrometer was calibrated to zero absorbance using culture medium without cells. The relative cell viability (%) related to control well containing cell culture medium without drug was calculated by [A]test/[A]control×100. % Cell Viability=[A]test/[A]control×100 [A]test=absorbance test sample [A]control=absorbance control sample Results: LC50: Concentration of the Compound in μg/ml (μm), Lethal to 50% Population of Cells.
(§4) The assay quantifies the viable cells, after […] incubation of cells with five different concentrations.

[4] = test system: mouse macrophages (Balb C); assay: as above; format: cell-based
Procedure: as §1, §2, §3, §4

[5] = both, Balb C, mouse, 48 h, 0.01 μg/ml
[6] = both, Balb C, mouse, 48 h, 0.5 μg/ml
[7] = both, Balb C, mouse, 48 h, 1 μg/ml
[8] = both, Balb C, mouse, 48 h, 2 μg/ml
[9] = both, Balb C, mouse, 48 h, 5 μg/ml

| Compound | % growth inhibition (mean ± SEM) [1] | inhibition at 0.01 µg/mL [1] | inhibition at 0.5 µg/mL [1] | inhibition at 1 µg/mL [1] | inhibition at 2 µg/mL [1] | inhibition at 5 µg/mL [1] | Serum levels of Testosterone, T [2] | CC50 at 48 h [3] | % viable Cells (mean ± SEM) [4, 5] | % viable Cells (mean ± SEM) [4, 6] | % viable Cells (mean ± SEM) [4, 7] | % viable Cells (mean ± SEM) [4, 8] | % viable Cells (mean ± SEM) [4, 9] | further results |
| --- | --- | --- | --- | --- | --- | --- | --- | --- | --- | --- | --- | --- | --- | --- |
| C[C@]12CC[C@H](OC(=O)c3ccc(O)cc3)CC1=CC[C@@H]1[C@@H]2CC[C@]2(C)C(=NO)CC[C@@H]12 [Compound 15, 17-oximino-5-androsten-3β-yl 4-hydroxybenzoate] | 91.54 ± 0.19% | 62.6 ± 2.46% | 76.9 ± 5.94% | 83.08 ± 0.75% | 91.4 ± 1.5% | > 90% | 0.73 ng/mL | 22 µM | 89.80 ± 2.95% | 81.02 ± 2.83% | 63.99 ± 0.91% | 56.88 ± 0.39% | 55.36 ± 0.19% | antiproliferative activity (in words) ([1]; 0.01-5.0 μg/ml): more potent than the reference Finasteride |
| C[C@]12CC[C@H](OC(=O)COc3ccccc3)CC1=CC[C@@H]1[C@@H]2CC[C@]2(C)C(=NO)CC[C@@H]12 [Compound 16, 17-oximino-5-androsten-3β-yl phenoxyacetate] | – | 33.6 ± 7.66% | 24.2 ± 6.37% | 36.2 ± 9.85% | 76.5 ± 5.58% | 87.8 ± 1.11% | 0.85 ng/mL | 89 µM | – | – | – | – | – | effect on serum testosterone level (in words) ([2]; rats, 6 hr post dose, compared to control): Significant increase in level of serum testosterone level; % viable Cells (mean ± SEM) ([4]; mouse macrophages, 0.01 μg/ml): 80.79 ± 2.30%; % viable Cells (mean ± SEM) ([4]; mouse macrophages, 0.5 μg/ml): 78.32 ± 0.89%; % viable Cells (mean ± SEM) ([4]; mouse macrophages, 1.0 μg/ml): 77.04 ± 0.23%; % viable Cells (mean ± SEM) ([4]; mouse macrophages, 2.0 μg/ml): 77.31 ± 0.37%; % viable Cells (mean ± SEM) ([4]; mouse macrophages, 5.0 μg/ml): 77.37 ± 0.16%; toxicity to mouse macrophages (in words) ([4]; mouse macrophages, 0.01-5.0 μg/ml): non toxic to mouse macrophages |
| CC(C)(C)NC(=O)[C@H]1CC[C@H]2[C@@H]3CC[C@H]4NC(=O)C=C[C@]4(C)[C@H]3CC[C@]12C [Finasteride, reference compound] | 78.51 ± 4.63% | 5 ± 1.58% | 8.83 ± 8.4% | 16.5 ± 2.49% | 36 ± 8.95% | 78% | 1.26 ± 0.02 ng/mL and 1.26 ng/mL | 28.2 µM | 96.45 ± 0.36% | 94.20 ± 1.72% | 93.32 ± 0.59% | 81.18 ± 0.20% | 79.14 ± 0.312% | – |
